Measured values: patent US11708357B2, “Crystal form of pyrrolidinyl urea derivative and application thereof” (ZHANGZHOU PIEN TZE HUANG PHARMACEUTICAL CO., LTD., priority 2020, dated 2023)

Tests used:
[1] = In vivo pharmacokinetic study in beagle dogs after single administration; settings: male, dog, plasma, 10 mg/kg, 10 mpk oral administration
Method: Male beagle dogs were used as test animals, the concentration of the compound in blood after single administration was determined to evaluate the pharmacokinetic behavior.
Beagle dogs (Male, 6-12 kg, more than 6 months, Beijing Marshall Biotechnology Co., Ltd.).
The objective of the test was to study the pharmacokinetic characteristics of the test compound in non-rodent after intravenous injection and oral administration. In the experiment, the test compound was prepared into a clear solution or homogeneous suspension and administered to the beagle dogs by single intravenous injection or oral administration. In the intravenous injection group, the menstruum was a certain proportion of dimethyl sulfoxide in HP-β-cyclodextrin solution or a certain proportion of ethanol, polyethylene glycol 400 and physiological saline solution, the mixture was vortexed and subjected to ultrasonic treatment to prepare 2 mg/mL clear solution, then filtered with microporous membrane for later use; in the oral administration group, the menstruum was a certain proportion of dimethyl sulfoxide in HP-β-cyclodextrin solution or a certain proportion of sodium carboxymethyl cellulose solution, the test compound was mixed with the menstruum, vortexed and subjected to ultrasonic treatment to prepare 2 mg/mL homogeneous suspension for later use. After 2 mg/kg intravenous administration or 10 mg/kg oral administration to the Beagle dogs, a certain amount of whole blood samples were collected, centrifuged at 3000 g for 10 minutes, and the supernatant was separated to obtain plasma samples; then an acetonitrile solution containing internal standard with a volume 10 times that of the plasma sample was added to precipitate proteins, and then centrifuged; the supernatant was separated for analysis; LC-MS/MS analysis method was used to quantitatively analyze the blood drug concentration, and Phoenix WinNonlin software (Pharsight, USA) was used to calculate the pharmacokinetic parameters, such as peak concentration, time to peak concentration, clearance rate, half-life, area under the concentration-time curve, bioavailability, etc.
(§1) Among them, C0 is the initial concentration, T1/2 is the elimination half-life, Vdss is the steady-state apparent volume of distribution, Cl is the total clearance rate, AUC0-inf is the area under the plasma drug concentration-time curve from time 0 to infinity, Cmax is the peak concentration, Tmax is the time to peak concentration.

[2] = Solid stability test (XRPD and HPLC purity); assay type: physicochemical
Method: Samples placed under high temperature and high humidity conditions were sealed with aluminum foil paper and small holes were punched in the aluminum foil paper to ensure that the sample could fully contact with ambient air; […] Samples placed under high temperature (60° C.) and high humidity (92.5% humidity, room temperature) conditions were sampled and tested (XRPD and purity) on the 5th and 10th day. […] Samples placed under the condition of illumination were sampled and tested when the total illuminance reached 1.2×10^6 Lux·hr.

[3] = Hygroscopicity by dynamic vapor sorption (DVS); assay type: physicochemical; settings: 25° C. and 80% RH
Method: Instrument model: Intrinsic dynamic vapor sorption instrument
Detection conditions: A sample (10-30 mg) was placed in a DVS sample tray for detection.
Balance: dm/dt=0.002%/min (shortest: 10 min, longest: 180 min)

[4] = In vivo pharmacokinetic study in rats after single administration; settings: male, Sprague Dawley, rat, plasma, 300 mg/kg, 300 mpk oral administration
Method: Male SD rats were used as test animals, and the concentration of the compound in blood was determined after single administration to evaluate the pharmacokinetic behavior.
Sprague Dawley rats (male, 200-300 g, 7-9 weeks, Shanghai Charles River Laboratory Animal Co., Ltd.)
The pharmacokinetic characteristics of the test compound in rodents after intravenous injection and oral administration were tested by standard protocols, in the experiment, the test compound was prepared into a clear solution or homogeneous suspension, and administered to the rats by single intravenous injection and oral administration. In the intravenous injection group, the menstruum was a certain proportion of ethanol and physiological saline solution or a certain proportion of dimethyl sulfoxide in HP-β cyclodextrin solution (the pH was adjusted to 3-4), the mixture was vortexed and stirred to prepare 1 mg/mL clear solution, then filtered with microporous membrane for later use; in the oral administration group, the menstruum was a certain proportion of sodium carboxymethyl cellulose solution or a certain proportion of dimethyl sulfoxide in HP-β cyclodextrin solution (the pH was adjusted to about 4), after the test compound was mixed with the solvent, the mixture was vortexed and stirred to prepare 30 mg/mL homogeneous suspension for later use. After 2 mg/kg intravenous administration or 300 mg/kg oral administration to rats, a certain amount of whole blood samples were collected, centrifuged at 3000 g for 15 minutes, the supernatant was separated to obtain the plasma samples; then an acetonitrile solution containing internal standard with a volume 3 times that of the plasma sample was added to precipitate proteins, and then centrifuged; the supernatant was separated, and water with a volume twice that of the supernatant was added to the supernatant, which was then centrifuged again; the supernatant was collected for analysis; LC-MS/MS analysis method was used to quantitatively analyze the blood drug concentration, and Phoenix WinNonlin software (Pharsight, USA) was used to calculate the pharmacokinetic parameters, such as peak concentration, time to peak concentration, clearance rate, half-life, area under the concentration-time curve, bioavailability, etc.
as §1

[5] = 40° C., relative humidity 75%, opened, 30 days
[6] = 40° C., relative humidity 75%, opened, 60 days
[7] = 60° C., relative humidity 75%, opened, 30 days
[8] = 60° C., relative humidity 75%, opened, 60 days
[9] = High humidity (room temperature/relative humidity 92.5%, opened), 5 days
[10] = High humidity (room temperature/relative humidity 92.5%, opened), 10 days
[11] = High temperature (60° C., opened), 5 days
[12] = High temperature (60° C., opened), 10 days
[13] = Illumination (total illuminance 1.2 × 10^6 Lux · hr/near ultraviolet 200 w · hr/m^2, opened)

Work on `COCCN1C[C@@H](n2ccc(F)c2)[C@H](NC(=O)Nc2c(C)c(-c3cnc(C4(F)COC4)nc3)nn2-c2ccccc2)C1` yielded an AUC(0-inf) [1] of 26.4 µM·h, a Cmax [1] of 10.4 µM and a Tmax [1] of 45 min. For the same compound, the bioavailability [1] was 113%, the half-life [1] was 57 min and the “Crystal form (XRPD)” value ([2]; 0 day (initial)) was “Crystal form E”. The Purity ([2]; 0 day (initial)) was 98.75%, the “Crystal form (XRPD)” value [2, 5] was “Crystal form E” and the Purity [2, 5] was 98.14%. The “Crystal form (XRPD)” value [2, 6] was “Crystal form E”, the Purity [2, 6] was 98.06% and the “Crystal form (XRPD)” value [2, 7] was “Crystal form E”. The Purity [2, 7] was 98.17%, the “Crystal form (XRPD)” value [2, 8] was “Crystal form E” and the Purity [2, 8] was 98.22%. The “Crystal form (XRPD)” value [2, 9] was “Crystal form E”, the Purity [2, 9] was 98.62% and the “Crystal form (XRPD)” value [2, 10] was “Crystal form E”. The Purity [2, 10] was 98.72%, the “Crystal form (XRPD)” value [2, 11] was “Crystal form E” and the Purity [2, 11] was 98.74%. The “Crystal form (XRPD)” value [2, 12] was “Crystal form E”, the Purity [2, 12] was 98.74% and the “Crystal form (XRPD)” value [2, 13] was “Crystal form E”. For the same compound, the Purity [2, 13] was 98.83%, the Classification of hygroscopicity [3] was “hygroscopic (15% > ΔW % ≥ 2%)” and the “hygroscopic weight gain ΔW” value [3] was 6.228%. It also gave an AUC(0-inf) [4] of 276 µM·h, a Cmax [4] of 48.5 µM and a Tmax [4] of 45 min. The bioavailability [4] was 70.5% and the half-life [4] was 195 min.
